Laboratory results from patent publication EP1900728A1 (Genecare Research Institute Co., Ltd, priority 2005, dated 2006).
Where two headings read alike, the source gives them in different places.

Experiments:
[1] = test system: ICAM-1 expression in HT-29 cells; test: Measurement of ICAM-1 expressing activity (TNFα-induced ICAM-1 expression, cell ELISA); assay type: cell-based; conditions: Homo sapiens, Table 6, cell activity inhibition test by method (3), read-out: EVALUATION (IC50 class, inhibition of cell activity)
Outline: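 HT-29 cells pretreated with compound (0.5% DMSO final) for 30 min at 37°C, then stimulated with 30 ng/mL human TNFα for 4 h. Surface ICAM-1 measured by cell ELISA on methanol-fixed cells: anti-ICAM-1 plus POD secondary, TMBZ substrate, absorbance at 450 nm.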

[2] = target: T1, IκBα ubiquitinating enzyme (SCF complex: ROC1, Cullin1, Skp1, His-TrCP1; with E1, UbcH5b) (Homo sapiens, UniProt P62877+P63208+Q13616+Q9Y297); test: Measurement of ubiquitinating enzyme activity (IκBα ubiquitination, time-resolved fluorescence with Eu(K)-labeled ubiquitin and XL665-labeled anti-GST antibody); assay type: biochemical
T1 construct: His (polyhistidine); made in house; host or cells: insect cells (baculovirus) for the SCF complex and His-E1; E. coli for His-UBCH5b
Outline: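 Human SCF complex with E1 and UbcH5b ubiquitinated GST-IκBα pre-phosphorylated by IKKβ (2 mM ATP, pH 7.4, 1 h, RT), with Eu(K)-ubiquitin, 30 min RT. Stopped with EDTA, XL665 anti-GST added for 2 h; 665/620 nm TR-FRET ratio. % inhibition versus no-compound control and no-SCF blank gave IC50.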

[3] = enzyme activity inhibition test, method (1), Table 5, read-out: EVALUATION

T1 sequence (Q9Y297 whole entry): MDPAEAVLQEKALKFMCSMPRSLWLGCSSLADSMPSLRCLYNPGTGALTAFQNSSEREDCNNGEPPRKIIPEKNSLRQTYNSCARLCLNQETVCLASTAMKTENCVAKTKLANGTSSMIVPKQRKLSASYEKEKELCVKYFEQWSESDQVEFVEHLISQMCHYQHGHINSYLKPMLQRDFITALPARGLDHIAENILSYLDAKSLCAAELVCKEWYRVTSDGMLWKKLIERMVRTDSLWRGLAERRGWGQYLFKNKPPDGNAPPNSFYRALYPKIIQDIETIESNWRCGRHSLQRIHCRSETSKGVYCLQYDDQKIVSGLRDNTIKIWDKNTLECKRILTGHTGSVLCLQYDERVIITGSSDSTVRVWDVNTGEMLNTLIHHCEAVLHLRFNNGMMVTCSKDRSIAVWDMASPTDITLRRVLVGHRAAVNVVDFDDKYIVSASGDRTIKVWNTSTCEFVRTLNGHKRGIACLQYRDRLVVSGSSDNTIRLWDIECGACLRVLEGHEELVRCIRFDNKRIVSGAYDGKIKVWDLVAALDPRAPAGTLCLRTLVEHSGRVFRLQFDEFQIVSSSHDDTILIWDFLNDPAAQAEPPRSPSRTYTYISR
T1 sequence (Q13616 whole entry): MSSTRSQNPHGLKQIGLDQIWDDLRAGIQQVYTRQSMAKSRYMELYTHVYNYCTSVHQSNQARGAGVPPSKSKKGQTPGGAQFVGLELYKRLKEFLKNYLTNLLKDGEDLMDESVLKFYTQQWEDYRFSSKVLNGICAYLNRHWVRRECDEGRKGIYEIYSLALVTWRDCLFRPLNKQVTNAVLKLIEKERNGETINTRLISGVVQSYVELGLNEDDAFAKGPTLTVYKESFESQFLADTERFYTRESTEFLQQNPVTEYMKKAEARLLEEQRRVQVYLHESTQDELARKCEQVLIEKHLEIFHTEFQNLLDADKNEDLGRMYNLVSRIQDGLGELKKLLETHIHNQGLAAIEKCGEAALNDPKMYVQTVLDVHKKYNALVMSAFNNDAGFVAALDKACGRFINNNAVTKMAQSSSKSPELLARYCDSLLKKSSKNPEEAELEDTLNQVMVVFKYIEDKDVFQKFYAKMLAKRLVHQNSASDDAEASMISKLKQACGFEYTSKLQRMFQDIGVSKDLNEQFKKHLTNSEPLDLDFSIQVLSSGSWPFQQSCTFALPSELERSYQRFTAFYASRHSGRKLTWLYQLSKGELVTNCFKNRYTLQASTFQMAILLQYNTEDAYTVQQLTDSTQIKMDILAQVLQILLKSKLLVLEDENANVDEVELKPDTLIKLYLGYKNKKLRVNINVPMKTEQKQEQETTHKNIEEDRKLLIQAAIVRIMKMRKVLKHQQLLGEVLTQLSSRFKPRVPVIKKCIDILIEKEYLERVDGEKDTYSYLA
T1 sequence (P63208 whole entry): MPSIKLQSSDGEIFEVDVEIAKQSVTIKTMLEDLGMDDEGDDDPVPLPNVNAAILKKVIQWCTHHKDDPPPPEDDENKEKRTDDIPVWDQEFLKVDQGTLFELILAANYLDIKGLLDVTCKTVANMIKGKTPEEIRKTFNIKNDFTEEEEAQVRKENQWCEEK
T1 sequence (P62877 whole entry): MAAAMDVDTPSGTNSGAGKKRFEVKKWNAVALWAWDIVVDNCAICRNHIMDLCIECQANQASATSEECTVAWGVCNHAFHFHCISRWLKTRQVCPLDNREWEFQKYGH

| IC50 [1] [µM] | IC50 [2, 3] [µM] | SMILES | IC50 [2] [µM] | IC50 ([2]; read-out: EVALUATION, enzyme activity inhibition test, method (1), Table 5) [µM] |
| --- | --- | --- | --- | --- |
| 10 to 20 | 10 to 20 | COc1cc(/C=C2\C(=O)N(c3ccc(S(N)(=O)=O)cc3)N=C2C)ccc1OCC(=O)OC(C)(C)C [Compound 121] |  |  |
| 10 to 20 | < 10 | CCCCC1=NN(c2ccc(C(=O)O)cc2)C(=O)/C1=C\c1ccc(-n2cccn2)cc1 [Compound 305] |  |  |
| 10 to 20 | < 10 | CC1=NN(c2ccc(C(=O)O)cc2)C(=O)/C1=C\c1ccc2c(ccn2Cc2c(C)noc2C)c1 [Compound 497] |  |  |
| < 40 | < 10 | O=C(O)c1ccc(N2N=C(c3ccoc3)/C(=C/c3ccc(-n4ccnc4)cc3)C2=O)cc1 [Compound 250] |  |  |
| 10 to 20 | 10 to 20 | O=C(O)c1ccc(N2N=C(c3ccccn3)/C(=C/c3ccc(N4CCCC4)cc3)C2=O)cc1 [Compound 291] |  |  |
| < 40 | < 10 | CC1=NN(c2cccc(C(=O)N3CCN(c4ccc(O)cc4)CC3)c2)C(=O)/C1=C\c1ccc2[nH]ccc2c1 [Compound 375] |  |  |
| < 40 | 10 to 20 | CN1CCN(c2ccc(/C=C3\C(=O)N(c4ccc(C(=O)O)cc4)N=C3Cc3ccccc3)cc2)CC1 [Compound 274] |  |  |
| < 10 | 10 to 20 | CC1=NN(c2ccc(S(N)(=O)=O)cc2)C(=O)/C1=C\c1ccccc1OS(=O)(=O)c1ccc(C)cc1 [Compound 220] |  |  |
| < 10 | 10 to 20 | COc1cccc(-c2ccc(/C=C3\C(=O)N(c4cccc(C(=O)O)c4)N=C3C)o2)c1 [Compound 503] |  |  |
| < 40 | 10 to 20 | CC1=NN(c2ccc(S(N)(=O)=O)cc2)C(=O)/C1=C\c1ccc2c(c1)OCCO2 [Compound 108] |  |  |
| < 10 | < 10 | COc1ccc(C2=NN(c3ccc(C(=O)O)cc3)C(=O)/C2=C\c2ccc3c(c2)OCCO3)cc1OC [Compound 283] |  |  |
| < 40 | < 10 | CN1CCN(c2ccc(/C=C3\C(=O)N(c4ccc(C(=O)O)cc4)N=C3C3CC3)cc2)CC1 [Compound 321] |  |  |
| 10 to 20 | < 10 | COCC1=NN(c2ccc(C(=O)O)cc2)C(=O)/C1=C\c1ccc(N2CCCC2)cc1 [Compound 236] |  |  |
| < 10 | < 10 | CCOC(=O)c1ccccc1-c1ccc(/C=C2\C(=O)N(c3ccc(C(=O)O)cc3)N=C2C)o1 [Compound 527] |  |  |
| < 40 | < 10 | CC1=NN(c2ccc(S(N)(=O)=O)cc2)C(=O)/C1=C\c1ccc(NC(=O)/C=C/c2ccccc2)cc1 [Compound 230] |  |  |
| 10 to 20 | 10 to 20 | CC1=NN(c2ccc(S(N)(=O)=O)cc2)C(=O)/C1=C\c1ccc(N2CCCCC2)cc1 [Compound 126] |  |  |
| < 40 | 10 to 20 | COc1ccc(C2=NN(c3ccc(C(=O)O)cc3)C(=O)/C2=C\c2ccc(CO)o2)cc1OC [Compound 280] |  |  |
| < 40 | < 10 | CC1=NN(c2ccc(C(=O)O)cc2)C(=O)/C1=C\c1ccc(N2CCCCC2)cc1 [Compound 350] |  |  |
| 10 to 20 | 10 to 20 | O=C(O)c1ccc(N2N=C(c3ccoc3)/C(=C/c3cccc4nccnc34)C2=O)cc1 [Compound 329] |  |  |
| 10 to 20 | 10 to 20 | O=C1/C(=C\c2ccc3c(c2)OCCO3)C(Cc2ccccc2)=NN1c1ccccc1 [Compound 29] |  |  |
| < 40 | < 10 | CC1=NN(c2ccc(C(=O)O)cc2)C(=O)/C1=C\c1ccc2c(ccn2Cc2cc(C)on2)c1 [Compound 496] |  |  |

| SMILES | IC50 [1] [µM] | IC50 [2, 3] [µM] | IC50 [2] [µM] | IC50 ([2]; read-out: EVALUATION, enzyme activity inhibition test, method (1), Table 5) [µM] |
| --- | --- | --- | --- | --- |
| CC1=NN(c2ccc(C(=O)O)cc2)C(=O)C1=Cc1ccc(N2CCN(c3ccccc3)CC2)cc1 [Compound 430] | < 10 |  | < 10 |  |
| CCCCC1=NN(c2ccc(C(=O)O)cc2)C(=O)C1=Cc1ccc2c(c1)OCO2 [Compound 480] | 10 to 20 |  | < 10 |  |
| CC1=NN(c2ccc(C(=O)O)cc2)C(=O)C1=Cc1ccc(OCC(=O)N(C)C)cc1 [Compound 535] | 10 to 20 |  | 10 to 20 |  |
| O=C(O)c1cccc(N2N=C(c3ccoc3)C(=Cc3ccc4[nH]ccc4c3)C2=O)c1 [Compound 475, 3-(3-Furan-3-yl-4-(1H-indol-ylmethylene)-5-oxo-4,5-dihydropyrazol-1-yl) benzoic acid] | 10 to 20 |  |  | < 10 |
| CC1=NN(c2ccc(S(N)(=O)=O)cc2)C(=O)C1=Cc1ccc(OCc2ccc([N+](=O)[O-])cc2)cc1 [Compound 216] | < 40 |  | < 10 |  |
| CC1=NN(c2ccc(C(=O)O)cc2)C(=O)C1=Cc1ccc2[nH]ccc2c1 [Compound 349] | < 40 |  | < 10 |  |
| CC1=NN(c2ccc(S(N)(=O)=O)cc2)C(=O)C1=Cc1ccc(N2CCN(C(=O)OC(C)(C)C)CC2)cc1 [Compound 179] | < 40 |  | 10 to 20 |  |
